Results from US20180113115A1, “SCREENING ASSAYS BASED ON MAG AND/OR ABHD6 FOR SELECTING INSULIN SECRETION PROMOTING AGENT” (VAL-CHUM, LIMITED PARTNERSHIP, priority 2010, published 2018).
pKi: −log10 of the molar value.

Assays:
rat islets = settings: lipolysis inhibition by pan-lipase inhibitors; cited from earlier work
β-cell = settings: inhibition of β-cell plasma membrane DAG lipase activity; cited from earlier work
TRPV1-R [1] = target: TRPV1-R (Homo sapiens, UniProt Q8NER1); settings: both in vitro and in vivo; cited from earlier work
TRPV1-R [2] = settings: cited from earlier work
INS 832/13 cells [3] = experiment: Insulin secretion measurement in INS 832/13 cells (static incubation); type: cell-based
Experimental: (§1) INS 832/13 cells (Hohmeir et al.) were cultured at 37° C. in a humidified atmosphere containing 5% CO2 in RPMI 1640 with sodium bicarbonate, supplemented with 10% (v/v) fetal calf serum (Wisent), 10 mM HEPES, pH 7.4, 2 mM L-glutamine, 1 mM sodium pyruvate and 50 μM β-mercaptoethanol (complete RPMI). Cells were grown to 80% confluence. Media were changed to RPMI 1640 containing 3 mM glucose supplemented as the complete RPMI 24 h prior to the experiments. Insulin secretion incubations were conducted in Krebs-Ringer bicarbonate buffer containing 10 mM HEPES, pH 7.4 (KRBH).
INS 832/13 cells were washed in KRBH containing 1 mM glucose and 0.5% defatted BSA (KRBH 1G/0.5% BSA) and pre-incubated for 45 min in KRBH 1G/0.5% BSA in presence of pharmacological agents (at indicated concentrations) or vehicle (DMSO). […] When examining the effect of 2-AG, it was added to cells at 0 to 1 μM concentration at 2 mM and 10 mM glucose. Insulin secretion from INS 832/13 cells was measured from either 45-min or 2-h static incubations in KRBH containing various glucose concentrations, 0.5% defatted BSA and pharmacological agents or vehicle, with or without 35 mM KCl or 0.3 mM palmitate, as specified.

INS 832/13 cells [4] = experiment: Effect of lipase inhibitors on [U-14C]-glucose incorporation into lipids; type: cell-based; settings: 1 and 10 mM [U14C]-glucose, 50 μM orlistat
Experimental: as §1
INS 832/13 cells were incubated overnight at 11 mM [U-^14C]-glucose in RPMI medium in a CO2-incubator in order to pre-label all the lipids in the cells. Then the cells were washed in KRBH (1 mM [U-^14C]-glucose) and pre-incubated for 45 min in KRBH at 1 mM [U-^14C]-glucose to bring metabolism to basal level. After this, cells were further incubated for 2 h in KRBH at 1 and 10 mM [U-^14C]-glucose and the indicated inhibitors. […] Then the cells were washed rapidly and flash-frozen in liquid nitrogen and extracted for lipids. Lipids were separated by TLC and the associated radioactivity was quantified. Neutral lipids were separated on boric acid/silica gel-TLC, with two solvent systems, first petroleum ether: diethyl ether: acetic acid (70:30:1), followed by second solvent system up to half of the plates, chloroform: acetone: acetic acid (60:40:1). Phospholipids were separated with a solvent system, chloroform: methanol: water (65:25:4).

INS 832/13 cells [5] = experiment: [1-14C]-arachidonic acid incorporation into 1-AG and 2-AG; type: cell-based
Experimental: FIG. 2A and FIG. 2B illustrate that glucose stimulates the incorporation of [1-^14C]-arachidonic acid into 1-AG and 2-AG in INS 832/13 cells. Incorporation of [1-^14C]-arachidonic acid (nmol/mg protein) is shown in function of various compounds. Results are shown for low (2 mM, 2G, white) and high (10 mM, 10G, dotted) glucose concentration. […] (n=6; *** p<0.001). Results are shown in nmol/mg protein for different cellular compounds (PL=phospholipids, 1-AG=1-monoarachidonylglycerol, 2-AG=2-monoarachidonylglycerol, NEFA=non-esterified fatty acids, 1,2-DAG=1,2-diacylglycerol, 1,3-DAG=1,3-diacylglycerol, TG=triacylglycerol).

[6] = system: INS832/13 cell membrane extracts; experiment: 1-OG (MAG) hydrolysis by cell membrane extracts, released oleic acid by HPLC; type: biochemical; settings: 50 μM 1-oleoylglycerol, 1 h at 30° C.
Experimental: 8 μg of […] cell membrane extracts were incubated with 50 μM of MAG (1-oleoylglycerol) and the indicated inhibitors for 1 h at 30° C. Released oleic acid was measured by HPLC after Dole's extraction and derivatization with bromoacetaminophenone.

ABHD12 = settings: cited from earlier work

Sequence of TRPV1-R (Homo sapiens, UniProt Q8NER1) (Q8NER1 whole entry): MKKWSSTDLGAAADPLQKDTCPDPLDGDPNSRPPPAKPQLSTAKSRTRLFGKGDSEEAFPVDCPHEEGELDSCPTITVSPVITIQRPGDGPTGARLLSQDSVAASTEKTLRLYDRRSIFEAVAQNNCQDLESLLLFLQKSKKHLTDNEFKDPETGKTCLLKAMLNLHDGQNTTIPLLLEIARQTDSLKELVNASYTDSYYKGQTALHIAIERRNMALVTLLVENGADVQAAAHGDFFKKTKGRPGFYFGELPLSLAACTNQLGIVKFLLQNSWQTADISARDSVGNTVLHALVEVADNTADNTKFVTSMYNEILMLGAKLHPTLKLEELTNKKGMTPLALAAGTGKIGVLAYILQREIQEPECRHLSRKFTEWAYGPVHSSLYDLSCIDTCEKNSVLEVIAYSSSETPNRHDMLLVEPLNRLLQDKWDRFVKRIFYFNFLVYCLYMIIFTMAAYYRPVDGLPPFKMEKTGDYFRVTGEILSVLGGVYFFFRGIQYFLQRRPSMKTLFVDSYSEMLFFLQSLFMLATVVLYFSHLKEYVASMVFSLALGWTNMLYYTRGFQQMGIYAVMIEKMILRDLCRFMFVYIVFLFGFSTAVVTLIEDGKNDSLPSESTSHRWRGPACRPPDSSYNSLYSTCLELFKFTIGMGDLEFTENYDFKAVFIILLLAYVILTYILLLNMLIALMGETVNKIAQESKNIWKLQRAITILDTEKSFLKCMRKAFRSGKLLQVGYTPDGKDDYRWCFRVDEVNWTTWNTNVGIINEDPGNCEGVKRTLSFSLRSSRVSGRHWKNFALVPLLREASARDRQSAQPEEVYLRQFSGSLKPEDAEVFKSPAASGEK

SMILES: Cc1cc(C)[nH]n1 [3,5-dimethylpyrazole]
- GSIS (rat islets): curtailed GSIS

SMILES: O=C(NCCCCCCNC(=O)ON=C1CCCCC1)ON=C1CCCCC1 [RHC80267]
- GSIS (β-cell): lowered GSIS

SMILES: COc1cc(CNC(=O)CCCC/C=C/C(C)C)ccc1O [capsaicin]
- insulin secretion and Ca2+ influx (TRPV1-R [1]): elevate insulin secretion and Ca^2+ influx
- insulin resistance (TRPV1-R [2]; administration of capsaicin): decrease insulin resistance
- plasma insulin levels (TRPV1-R [2]; in vivo): elevates plasma insulin levels

SMILES: CCCCCCCCCCC[C@@H](C[C@@H]1OC(=O)[C@H]1CCCCCC)OC(=O)[C@H](CC(C)C)NC=O [orlistat, tetrahydrolipstatin]
- insulin secretion (INS 832/13 cells [3]; 100 μM orlistat, 2 and 10 mM glucose): curtails insulin secretion
- glucose-stimulated insulin secretion (GSIS) (INS 832/13 cells [3]; increasing glucose (5 and 10 mM), 10 μM WWL70, 50 μM orlistat, 1 μM JZL184): strongly inhibited GSIS
- release of [U14C]-free fatty acids (FFA) (INS 832/13 cells [4]; 1 μM JZL184): almost completely lowered this release
- glucose incorporation into phospholipids (INS 832/13 cells [4]; 10 μM WWL70): None of the lipase inhibitors had any significant effect
- glucose incorporation into 1-monoacylglycerol (1-MAG) (INS 832/13 cells [4]; 10 μM WWL70, 1 μM JZL184): significantly lowered
- glucose incorporation into 2-monoacylglycerol (2-MAG) (INS 832/13 cells [4]; 10 μM WWL70, 1 μM JZL184): no effect
- glucose incorporation into diacylglycerol (DAG) (INS 832/13 cells [4]; 10 μM WWL70, 1 μM JZL184): Neither of the inhibitors had any effect
- glucose incorporation into triglycerides (TG) (INS 832/13 cells [4]; 10 μM WWL70, 1 μM JZL184): TG accumulated
- [1-14C]-arachidonic acid incorporation into 1-AG and 2-AG (INS 832/13 cells [5]): curtails
- 1-OG hydrolysis activity (released oleic acid) [6]: inhibited the 1-OG hydrolysis activity
- pKi (ABHD12): > 7.00
- GSIS (rat islets): curtailed GSIS
